# Tests used:
# Assay in all cases: relative viability (nuclei count vs DMSO), 5 days (fraction); higher = more cells survive
# JZL-184 + Phenformin = compound: C1CN(CCC1C(C2=CC3=C(C=C2)OCO3)(C4=CC5=C(C=C4)OCO5)O)C(=O)OC6=CC=C(C=C6)[N+](=O)[O-] [JZL-184] + N=C(N)NC(=N)NCCc1ccccc1 [Phenformin] (partner 250 µM)
# Summary of the method: (§1)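 Lung cancer cell lines, seeded in 1536-well plates, were treated the following day by pin tool with a single drug or with five library-drug doses (not always all listed) in √10 steps on top of a fixed anchor-drug dose. Cells were fixed and nuclei stained in one step after 5 days, and nuclei were counted. Relative viability is the nuclei count for treated wells divided by that for vehicle wells, reported as medians of duplicate plates.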
# JZL-184 + Linsitinib = compound: C1CN(CCC1C(C2=CC3=C(C=C2)OCO3)(C4=CC5=C(C=C4)OCO5)O)C(=O)OC6=CC=C(C=C6)[N+](=O)[O-] [JZL-184] + C[C@]1(O)C[C@@H](c2nc(-c3ccc4ccc(-c5ccccc5)nc4c3)c3c(N)nccn32)C1 [Linsitinib] (partner 1 µM)
# Summary of the method: as §1
# JZL-184 + Foretinib = compound: C1CN(CCC1C(C2=CC3=C(C=C2)OCO3)(C4=CC5=C(C=C4)OCO5)O)C(=O)OC6=CC=C(C=C6)[N+](=O)[O-] [JZL-184] + COc1cc2c(Oc3ccc(NC(=O)C4(C(=O)Nc5ccc(F)cc5)CC4)cc3F)ccnc2cc1OCCCN1CCOCC1 [Foretinib] (partner 0.25 µM)
# Summary of the method: as §1
# JZL-184 + Crizotinib = compound: C1CN(CCC1C(C2=CC3=C(C=C2)OCO3)(C4=CC5=C(C=C4)OCO5)O)C(=O)OC6=CC=C(C=C6)[N+](=O)[O-] [JZL-184] + C[C@@H](Oc1cc(-c2cnn(C3CCNCC3)c2)cnc1N)c1c(Cl)ccc(F)c1Cl [Crizotinib] (partner 1 µM)
# Summary of the method: as §1
# JZL-184 = compound: C1CN(CCC1C(C2=CC3=C(C=C2)OCO3)(C4=CC5=C(C=C4)OCO5)O)C(=O)OC6=CC=C(C=C6)[N+](=O)[O-] [JZL-184]
# Summary of the method: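 MetaXpress counted nuclei in 4× images of lung cancer cell lines that had been fixed, permeabilised and Hoechst-stained in one step. Before that, cells in 1536-well plates were kept overnight at 37 °C, pinned with five √10-spaced library-drug doses on vehicle-anchored plates, and cultured 5 days without medium change. Viability takes treated-well nuclei over vehicle-well nuclei and uses the median across plates. Plates were accepted only at control CV below 25% and at least one doubling.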
cell line,measurement,setting,value
NCI-H727,relative viability,JZL-184 + Phenformin; first compound 0.04 µM,0.676
same,relative viability,JZL-184 + Phenformin; first compound 0.4 µM,0.517
same,relative viability,JZL-184 + Phenformin; first compound 1.265 µM,0.509
same,relative viability,JZL-184 + Phenformin; first compound 4 µM,0.45
same,relative viability,JZL-184 + Linsitinib; first compound 0.04 µM,0.203
same,relative viability,JZL-184 + Linsitinib; first compound 0.4 µM,0.314
same,relative viability,JZL-184 + Linsitinib; first compound 1.265 µM,0.233
same,relative viability,JZL-184 + Linsitinib; first compound 4 µM,0.373
same,relative viability,JZL-184 + Foretinib; first compound 0.04 µM,0.981
same,relative viability,JZL-184 + Foretinib; first compound 0.4 µM,0.744
same,relative viability,JZL-184 + Foretinib; first compound 1.265 µM,0.932
same,relative viability,JZL-184 + Foretinib; first compound 4 µM,0.845
same,relative viability,JZL-184 + Crizotinib; first compound 0.04 µM,0.876
same,relative viability,JZL-184 + Crizotinib; first compound 0.4 µM,0.728
same,relative viability,JZL-184 + Crizotinib; first compound 1.265 µM,0.903
same,relative viability,JZL-184 + Crizotinib; first compound 4 µM,0.864
same,relative viability,JZL-184; 0.04 µM,0.949
same,relative viability,JZL-184; 0.4 µM,0.793
same,relative viability,JZL-184; 1.265 µM,1.09
same,relative viability,JZL-184; 4 µM,0.781
NCI-H441,relative viability,JZL-184 + Phenformin; first compound 0.04 µM,0.818
same,relative viability,JZL-184 + Phenformin; first compound 0.4 µM,0.802
same,relative viability,JZL-184 + Phenformin; first compound 1.265 µM,0.914
same,relative viability,JZL-184 + Phenformin; first compound 4 µM,0.923
same,relative viability,JZL-184 + Linsitinib; first compound 0.04 µM,0.534
same,relative viability,JZL-184 + Linsitinib; first compound 0.4 µM,0.401
same,relative viability,JZL-184 + Linsitinib; first compound 1.265 µM,0.672
same,relative viability,JZL-184 + Linsitinib; first compound 4 µM,0.606
same,relative viability,JZL-184 + Foretinib; first compound 0.04 µM,1.36
same,relative viability,JZL-184 + Foretinib; first compound 0.4 µM,0.907
same,relative viability,JZL-184 + Foretinib; first compound 1.265 µM,0.897
same,relative viability,JZL-184 + Foretinib; first compound 4 µM,1.06
same,relative viability,JZL-184 + Crizotinib; first compound 0.04 µM,0.767
same,relative viability,JZL-184 + Crizotinib; first compound 0.4 µM,0.54
same,relative viability,JZL-184 + Crizotinib; first compound 1.265 µM,0.793
same,relative viability,JZL-184 + Crizotinib; first compound 4 µM,0.58
same,relative viability,JZL-184; 0.04 µM,1.14
same,relative viability,JZL-184; 0.4 µM,0.814
same,relative viability,JZL-184; 1.265 µM,1.02
same,relative viability,JZL-184; 4 µM,0.998
HOP-62,relative viability,JZL-184 + Phenformin; first compound 0.04 µM,0.787
same,relative viability,JZL-184 + Phenformin; first compound 0.4 µM,0.639
same,relative viability,JZL-184 + Phenformin; first compound 1.265 µM,0.705
same,relative viability,JZL-184 + Phenformin; first compound 4 µM,0.683
same,relative viability,JZL-184 + Linsitinib; first compound 0.04 µM,1.09
same,relative viability,JZL-184 + Linsitinib; first compound 0.4 µM,1.13
same,relative viability,JZL-184 + Linsitinib; first compound 1.265 µM,0.992
same,relative viability,JZL-184 + Linsitinib; first compound 4 µM,0.784
same,relative viability,JZL-184 + Foretinib; first compound 0.04 µM,1.16
same,relative viability,JZL-184 + Foretinib; first compound 0.4 µM,1.08
same,relative viability,JZL-184 + Foretinib; first compound 1.265 µM,1.09
same,relative viability,JZL-184 + Foretinib; first compound 4 µM,1.03
same,relative viability,JZL-184 + Crizotinib; first compound 0.04 µM,1.01
same,relative viability,JZL-184 + Crizotinib; first compound 0.4 µM,0.905
same,relative viability,JZL-184 + Crizotinib; first compound 1.265 µM,1.05
same,relative viability,JZL-184 + Crizotinib; first compound 4 µM,0.839
same,relative viability,JZL-184; 0.04 µM,1.08
same,relative viability,JZL-184; 0.4 µM,1.01
same,relative viability,JZL-184; 1.265 µM,1.04
same,relative viability,JZL-184; 4 µM,1.01
RERF-LC-KJ,relative viability,JZL-184 + Phenformin; first compound 0.04 µM,0.479
same,relative viability,JZL-184 + Phenformin; first compound 0.4 µM,0.357
same,relative viability,JZL-184 + Phenformin; first compound 1.265 µM,0.382
same,relative viability,JZL-184 + Phenformin; first compound 4 µM,0.371
same,relative viability,JZL-184 + Linsitinib; first compound 0.04 µM,0.874
same,relative viability,JZL-184 + Linsitinib; first compound 0.4 µM,0.854
same,relative viability,JZL-184 + Linsitinib; first compound 1.265 µM,0.867
same,relative viability,JZL-184 + Linsitinib; first compound 4 µM,0.873
same,relative viability,JZL-184 + Foretinib; first compound 0.04 µM,0.933
same,relative viability,JZL-184 + Foretinib; first compound 0.4 µM,0.9
same,relative viability,JZL-184 + Foretinib; first compound 1.265 µM,0.876
same,relative viability,JZL-184 + Foretinib; first compound 4 µM,0.781
same,relative viability,JZL-184 + Crizotinib; first compound 0.04 µM,0.844
same,relative viability,JZL-184 + Crizotinib; first compound 0.4 µM,0.75
same,relative viability,JZL-184 + Crizotinib; first compound 1.265 µM,0.856
same,relative viability,JZL-184 + Crizotinib; first compound 4 µM,0.742
same,relative viability,JZL-184; 0.04 µM,1.05
same,relative viability,JZL-184; 0.4 µM,0.981
same,relative viability,JZL-184; 1.265 µM,1.02
same,relative viability,JZL-184; 4 µM,0.988
LCLC-103H,relative viability,JZL-184 + Phenformin; first compound 0.04 µM,0.338
same,relative viability,JZL-184 + Phenformin; first compound 0.4 µM,0.296
same,relative viability,JZL-184 + Phenformin; first compound 1.265 µM,0.345
same,relative viability,JZL-184 + Phenformin; first compound 4 µM,0.323
same,relative viability,JZL-184 + Linsitinib; first compound 0.04 µM,1.06
same,relative viability,JZL-184 + Linsitinib; first compound 0.4 µM,1.16
same,relative viability,JZL-184 + Linsitinib; first compound 1.265 µM,1
same,relative viability,JZL-184 + Linsitinib; first compound 4 µM,1.05
same,relative viability,JZL-184 + Foretinib; first compound 0.04 µM,0.833
same,relative viability,JZL-184 + Foretinib; first compound 0.4 µM,0.682
same,relative viability,JZL-184 + Foretinib; first compound 1.265 µM,0.724
same,relative viability,JZL-184 + Foretinib; first compound 4 µM,0.529
same,relative viability,JZL-184 + Crizotinib; first compound 0.04 µM,1.02
same,relative viability,JZL-184 + Crizotinib; first compound 0.4 µM,0.959
same,relative viability,JZL-184 + Crizotinib; first compound 1.265 µM,1.02
same,relative viability,JZL-184 + Crizotinib; first compound 4 µM,1
same,relative viability,JZL-184; 0.04 µM,0.956
same,relative viability,JZL-184; 0.4 µM,0.988
same,relative viability,JZL-184; 1.265 µM,1.04
same,relative viability,JZL-184; 4 µM,0.986
NCI-H1915,relative viability,JZL-184 + Phenformin; first compound 0.04 µM,0.378
same,relative viability,JZL-184 + Phenformin; first compound 0.4 µM,0.364
same,relative viability,JZL-184 + Phenformin; first compound 1.265 µM,0.377
same,relative viability,JZL-184 + Phenformin; first compound 4 µM,0.367
same,relative viability,JZL-184 + Linsitinib; first compound 0.04 µM,1.14
same,relative viability,JZL-184 + Linsitinib; first compound 0.4 µM,0.996
same,relative viability,JZL-184 + Linsitinib; first compound 1.265 µM,1.09
same,relative viability,JZL-184 + Linsitinib; first compound 4 µM,1.02
same,relative viability,JZL-184 + Foretinib; first compound 0.04 µM,1.15
same,relative viability,JZL-184 + Foretinib; first compound 0.4 µM,1.01
same,relative viability,JZL-184 + Foretinib; first compound 1.265 µM,1.18
same,relative viability,JZL-184 + Foretinib; first compound 4 µM,1.07
same,relative viability,JZL-184 + Crizotinib; first compound 0.04 µM,0.924
same,relative viability,JZL-184 + Crizotinib; first compound 0.4 µM,0.821
same,relative viability,JZL-184 + Crizotinib; first compound 1.265 µM,0.902
same,relative viability,JZL-184 + Crizotinib; first compound 4 µM,0.84
same,relative viability,JZL-184; 0.04 µM,1.09
same,relative viability,JZL-184; 0.4 µM,0.956
same,relative viability,JZL-184; 1.265 µM,1.1
same,relative viability,JZL-184; 4 µM,0.976
PC-14,relative viability,JZL-184 + Phenformin; first compound 0.04 µM,0.756
same,relative viability,JZL-184 + Phenformin; first compound 0.4 µM,0.473
same,relative viability,JZL-184 + Phenformin; first compound 1.265 µM,0.72
same,relative viability,JZL-184 + Phenformin; first compound 4 µM,0.504
same,relative viability,JZL-184 + Linsitinib; first compound 0.04 µM,1.05
same,relative viability,JZL-184 + Linsitinib; first compound 0.4 µM,0.965
same,relative viability,JZL-184 + Linsitinib; first compound 1.265 µM,0.95
same,relative viability,JZL-184 + Linsitinib; first compound 4 µM,0.942
same,relative viability,JZL-184 + Foretinib; first compound 0.04 µM,1.02
same,relative viability,JZL-184 + Foretinib; first compound 0.4 µM,0.927
same,relative viability,JZL-184 + Foretinib; first compound 1.265 µM,0.954
same,relative viability,JZL-184 + Foretinib; first compound 4 µM,0.946
same,relative viability,JZL-184 + Crizotinib; first compound 0.04 µM,0.909
same,relative viability,JZL-184 + Crizotinib; first compound 0.4 µM,0.966
same,relative viability,JZL-184 + Crizotinib; first compound 1.265 µM,0.828
same,relative viability,JZL-184 + Crizotinib; first compound 4 µM,0.86
same,relative viability,JZL-184; 0.04 µM,1.24
same,relative viability,JZL-184; 0.4 µM,0.974
same,relative viability,JZL-184; 1.265 µM,1.07
same,relative viability,JZL-184; 4 µM,0.936

# — the supplement of paper PMC10307832
